Like-named read-outs stand apart in the source and are kept apart here.
Experiments:
[1] = test system: M. bovis BCG-GFP; assay type: cell-based; settings: for pattern-specific score (PSS): 10µM, 48 hr
[2] = test system: HeLa cells stably expressing mRFP-GFP-LC3; assay type: cell-based, human; settings: for mRFP to GFP co-localisation: 2 hr, N and PE 10µM, Chloroquine 25 µM, BafilomycinA1 100nM; for co-localisation of mRFP and GFP over time: different periods of time
Description: Second, an established assay was used for measuring autophagic flux based on a tandem mRFP-GFP-LC3 construct (Kimura et al., 2007). Since GFP is quenched in the acidic environment of autophagolysosomes whereas mRFP remains stable, agents blocking autophagy flux display higher colocalization of mRFP and GFP compared to those inducing autophagy. HeLa cells stably expressing mRFP-GFP-LC3 (Settembre et al., 2011) were treated with the compounds and the co-localization between mRFP and GFP was quantified. […] Similar results were obtained for the co-localisation of LC3-GFP with LBPA in HeLa-LC3-GFP cells (Figure 12D).
The increased acidification by PE is in apparent contradiction with the inhibition of autophagic flux. To solve this discrepancy, HeLa cells stably expressing mRFP-GFP- -LC3 were treated with the compounds for different periods of time.

[3] = test system: A431 cells stably expressing GFP-Rab5; test: Live cell imaging of endosome motility; assay type: cell-based; settings: 10µM, 2 hr
[4] = test system: M. bovis BCG-GFP; assay type: cell-based
[5] = test system: M. bovis BCG-GFP; assay type: cell-based; settings: 10µM, 4 days plus 24hr with alamar blue
[6] = test system: HeLa cells; test: High content autophagy assay (LC3 immunostaining); assay type: cell-based, human; settings: 10µM (Rapamycin 5.5 µM), 4 hr
Description: HeLa cells were treated with the compounds at a final concentration of 10µM, incubated for 4 hr, fixed with 3.7% PFA and immunostained with anti-LC3 antibody (clone PM036, MBL labs). Cells were counterstained by DAPI and Cell Mask Blue, imaged and analyzed as described above.
Autophagy is a key process regulated by mTOR (Laplante and Sabatini, 2012) and a known mediator of intracellular mycobacterial survival (Gutierrez et al., 2004; Kumar et al., 2010). The integration approach predicted that compounds from E1, but not E2, modulate autophagy. To test it, HeLa cells were treated with the compounds, immunostained for the autophagosome marker LC3 and multiple parameters reporting diverse facets of autophagosomes were extracted (Table 3). […] Of the three compounds validated in intracellular mycobacterial killing, Nortriptyline and PE belong to sub-cluster E1 whereas Haloperidol belongs to E2.

[7] = test system: HeLa BAC GFP-Rab5c; test: Cell-based LDL trafficking assay; design: species or system human
[8] = test system: HeLa BAC LC3-GFP; assay type: cell-based, human
[9] = test system: M. bovis BCG-GFP; assay type: cell-based; remark: listed apart in the source
[10] = test system: LC3; settings: for LC3-II band: 10 µM; for additive effects of BafilomycinA1 on LC3-II band: 10 µM with BafilomycinA1 100nM

Cn1cnc(N)c2ncnc1-2 [3-MA, 3-Methyl Adenine]
effect of 3-MA on action of Nortriptyline on mycobacterial survival [1]: reverted the effect of Nortriptyline on mycobacterial survival

CC1(C)CC2C1CCC1(C)OC2(C)CCC1O (centres unmarked) [3;7-EPOXYCARYOPHYLLAN-6-OL]
pattern-specific score (PSS) [1]: 0.7194

COc1cc2c(cc1OC)C1(O)C(=O)c3ccc(O)c(C(=O)O)c3OC1CO2 (centres unmarked) [12A-HYDROXY-9-DEMETHYLMUNDUSERONE-8-CARBOXYLIC ACID]
pattern-specific score (PSS) [1]: 0.8387

CO/C1=C\C(C)=C\[C@@H](C)[C@@H](O)[C@@H](C)C/C(C)=C/C=C/[C@H](OC)[C@@H]([C@@H](C)[C@@H](O)[C@H](C)[C@@]2(O)C[C@@H](O)[C@H](C)[C@@H](C(C)C)O2)OC1=O [BafilomycinA1]
mRFP to GFP co-localisation [2]: higher co-localisation
co-localisation of mRFP and GFP over time [2]: increased over time

CO/N=C(\C(=O)N[C@@H]1C(=O)N2C(C(=O)OCOC(=O)C(C)(C)C)=C(/C=C\c3scnc3C)CS[C@H]12)c1csc(N)n1 [CEFDITORIN PIVOXIL]
pattern-specific score (PSS) [1]: 0.8626

CCN(CC)CCCC(C)Nc1ccnc2cc(Cl)ccc12 (centres unmarked) [Chloroquine]
mRFP to GFP co-localisation [2]: higher co-localisation
co-localisation of mRFP and GFP over time [2]: increased over time

NC(C(=O)O)C(O)C(=O)O [D;L-THREO-3-HYDROXYASPARTIC ACID]
pattern-specific score (PSS) [1]: 0.8004

OC[C@@H](O)[C@@H](OC1O[C@H](CO)[C@@H](O)[C@H](O)[C@H]1O)[C@H](O)[C@@H](O)CO (some centres unmarked) [GLUCITOL-4-GUCOPYANOSIDE]
pattern-specific score (PSS) [1]: 0.8836

O=S(=O)(NCCNC/C=C/c1ccc(Br)cc1)c1cccc2cnccc12 [H89]
pattern-specific score (PSS) [1]: 0.9636

O=c1cc(-c2cc(O)c(O)c(O)c2)oc2cc(O)cc(O)c12 [HIERACIN]
pattern-specific score (PSS) [1]: 0.3164

O=C(CCCN1CCC(O)(c2ccc(Cl)cc2)CC1)c1ccc(F)cc1 [Haloperidol, 4-[4-(4-chlorophenyl)-4-hydroxy-1-piperidyl]-1-(4-fluorophenyl)-butan-1-one]
mean square displacement of endosomes [3]: long, but not short, time-scale movements of GFP-Rab5 endosomes were significantly accelerated
motility of early endosomes [3]: much higher motility of early endosomes harboring high levels of Rab5
bacteriostatic activity on M. bovis BCG-GFP at neutral and acidic pH ([4]; 10 µM): did not show bacteriostatic activity
effect in the alamar blue screen [5]: lack of effect
effect on autophagy [6]: did not
intensity of LDL in early and late endosomes ([7]; 10µM, LDL pulse for different times): significantly increased the intensity of LDL in late, but not early endosomes
size, number and position of LDL-containing late endosomes ([7]; 10 µM, late, but not early endosomes): larger, more numerous and closer to the cell centre
phenotype (phenotypic profile) in mycobacteria high content screen [1]: reduced bacterial intensity, fewer bacteria and infected cells

CN1CCc2c(c3ccccc3n2Cc2ccccc2)C1.CN1CCc2c(c3ccccc3n2Cc2ccccc2)C1.O=S(=O)(O)c1cccc2c(S(=O)(=O)O)cccc12 [MEBHYDROLIN NAPHTHALENESULFONATE]
pattern-specific score (PSS) [1]: 0.9999

CSc1ccc2c(c1)C(N1CCN(C)CC1)Cc1ccccc1S2.O=C(O)/C=C\C(=O)O (centres unmarked) [METHIOTHEPIN MALEATE]
pattern-specific score (PSS) [1]: 0.9941

CC([C@H](O)c1ccccc1)N(C)C (stereo partly drawn) [N-METHYL (-)EPHEDRINE]
pattern-specific score (PSS) [1]: 0.8936

CN(C)c1nc(N)c(C(=O)N=C(N)N)nc1Cl [N;N-DIMETHYLAMILORIDE]
pattern-specific score (PSS) [1]: 0.5976

CNCCC=C1c2ccccc2CCc2ccccc21 [Nortriptyline, 3-(10,11-dihydro-5H-dibenzo[a,d]cyclohepten-5-ylidene)-N-methyl-1-propanamine]
additive effect with BafilomycinA1 and Chloroquine in increasing LC3-GFP vesicles [8]: had an additive effect
bacteriostatic activity on M. bovis BCG-GFP at neutral and acidic pH [4]: did not show bacteriostatic activity
effect in the alamar blue screen [5]: lack of effect
synergy with IFN-γ on mycobacterial survival [9]: synergized strongly with IFN-γ
effect on autophagy [6]: strong effect on autophagy
LC3-II band [10]: significant increase in the LC3-II band
additive effects of BafilomycinA1 on LC3-II band [10]: additive effects of BafilomycinA1 were seen
phenotype (phenotypic profile) in mycobacteria high content screen [1]: reduced bacterial intensity, fewer bacteria and infected cells
mRFP to GFP co-localisation [2]: low mRFP to GFP co-localisation

CN1CCN(CCCN2c3ccccc3Sc3ccc(Cl)cc32)CC1 [Prochlorperazine edisylate, 2-chloro-10-[3-(4-methyl-1-piperazinyl)propyl]-10H-phenothiazine]
additive effect with BafilomycinA1 and Chloroquine in increasing LC3-GFP vesicles ([8]; 10 µM, 4 hours, Chloroquine 25 µM, BafilomycinA1 100nM): not
bacteriostatic activity on M. bovis BCG-GFP at neutral and acidic pH ([4]; 10 µM): did not show bacteriostatic activity
effect in the alamar blue screen [5]: lack of effect
synergy with IFN-γ on mycobacterial survival [9]: much weaker effect
effect on autophagy [6]: strong effect on autophagy
LC3-II band [10]: significant increase in the LC3-II band
additive effects of BafilomycinA1 on LC3-II band [10]: not
phenotype (phenotypic profile) in mycobacteria high content screen [1]: reduced bacterial intensity, fewer bacteria and infected cells
mRFP to GFP co-localisation [2]: higher co-localisation
co-localisation of mRFP and GFP over time [2]: increased within the first hr but then progressively decreased

C[C@@H]1CC[C@@]2(OC1)O[C@H]1C[C@H]3[C@@H]4CC[C@@H]5C[C@@H](O)CC[C@]5(C)[C@H]4CC[C@]3(C)[C@H]1[C@@H]2C [SMILAGENIN]
pattern-specific score (PSS) [1]: 0.7198

COc1cc2c3cc1Oc1cc(ccc1O)C[C@@H]1c4c(cc(OC)c(O)c4Oc4ccc(cc4)C[C@@H]3N(C)CC2)CC[N+]1(C)C.Cl.O.O.O.O.O.[Cl-] [TUBOCURARINE CHLORIDE]
pattern-specific score (PSS) [1]: 0.7944

TOTAROL ACETATE
pattern-specific score (PSS) [1]: 0.7904

TRIMEPRAZINE TARTRATE
pattern-specific score (PSS) [1]: 1
